Data on one compound can be found in patent US8440464B2, “Method for evaluation or selection of adiponectin secretion regulator” (Kao Corporation, priority 2008, dated 2013).

This test deals with plasma adiponectin level. Briefly: Plasma adiponectin level in REM sleep deprivation rat model (platform method), rat adiponectin ELISA. The following applies: SD rats, 30-hour REM sleep deprivation, oral 150 mg/kg thrice every 12 hours (300 mg/kg/day), vs. control group receiving distilled water, P<0.05 (Fisher's PLSD test). In kind it is in vivo. As to the method:
SD rats (male, 10 to 11 weeks old) were divided into groups, each containing rats with similar body weights. A cylindrical platform (diameter: 6.0 cm, height: 2.5 cm) on which a rat can take a rest was placed in a cage, and water was added to the cage so that the water level was adjusted to 1 cm below the top of the platform. Each rat was reared for one to four days in the cage (one rat/cage). Rats of a rest group were reared in cages each containing a common floorcloth (N=4 for each group). In a chlorogenic acid administration experiment, rats were reared in cages for 30-hour REM sleep deprivation. Rats of a chlorogenic acid (5-CQA, product of Sigma) administration group orally received chlorogenic acid thrice every 12 hours by means of a probe (dose: 150 mg/kg (300 mg/kg/day)). Rats of a control group received distilled water. Rats of a rest group were reared in cages each containing a common floorcloth, and received distilled water (N=6 for each group). […] The plasma adiponectin level was determined by means of a rat adiponectin ELISA kit (product of ADIPOGEN®). Specifically, plasma was 1,000-fold diluted with a dilution buffer contained in the kit, and then plasma adiponectin level was determined according to the kit protocol.
(ELISA stands for enzyme-linked immunosorbent assay.)

`O=C(/C=C/c1ccc(O)c(O)c1)O[C@@H]1C[C@](O)(C(=O)O)C[C@@H](O)[C@H]1O` [chlorogenic acid]: the “Effect on reduction in plasma adiponectin level caused by REM sleep deprivation” value is “significantly suppressed a reduction in plasma adiponectin level”.
